The test system of one series is HCT116 cells. In words: Inhibition of cancer cell proliferation (MTT, GIC50). It counts as cell-based. The following applies: Homo sapiens, HCT-116, 48 hours incubation. The protocol: HCT116 cells derived from human colorectal cancer were used, and an effect of a biguanide derivative on the inhibition of cancer cell proliferation was confirmed by measuring a concentration value (cell growth inhibition concentration, GIC50) at which 50% of the cell growth was inhibited using a 3-(4,5-dimethylthiazol-2-yl)-2,5-diphenytetrazolium bromide (MTT) reagent.
First, HCT116 cells were put on a 96-well plate and cultured in a DMEM medium containing 10% bovine serum for 24 hours to each have cell count of approximately 5000. Subsequently, to obtain the GIC50 value of each compound, 100 μM (or 200 μM), 25 μM, 6.25 μM, 1.56 μM or 0.39 μM of the compound was treated to each culture medium and then incubated for 48 hours. To confirm living cells after treatment with the compound, MTT was added to each culture medium and further incubated for 3 hours. Generated formazane crystal was dissolved using dimethyl sulfoxide (DMSO) and absorbance of the solution was measured at 560 nm. After the 48-hour incubation, a ratio of a cell count cultured on a well plate not treated with the compound to a cell count on a well plate treated with compounds synthesized in the examples was indicated as cell viability (%) according to each administered concentration. A cell viability curve was plotted using the cell viability (%), and the calculated concentration value (GIC50) of the compound, at which 50% of the growth was inhibited was, to confirm an effect on the inhibition of cancer cell proliferation.

Series [1] deals with 5′-AMP-activated protein kinase (AMPK). Nature of the series: AMPK activation (AMPKα Thr172 phosphorylation immunoassay) in MCF7 cells. It is filed as cell-based, human. The conditions noted are these: MCF7 cells; for AMPK Activation (phosphorylated AMPKα Thr172): 50 μM compound, 24 hours; for fold induction at 50 µM: Homo sapiens, 24 h, 50 μM vs. 0 (cells without compound). As to the method: MCF7 cells derived from human breast cancer cells were used, and an effect of a biguanide derivative on 5′-AMP-activated protein kinase (AMPK) activation was confirmed using an AMPKα immunoassay kit (Invitrogen, catalog No. KHO0651).
The MCF7 cells were put on a 6-well plate and incubated in a DMEM medium containing 10% fetal bovine serum in an incubator to which 5% CO2 was supplied to have a cell count of approximately 5×10^5. 50 μM of derivatives synthesized in the examples were treated to the each culture medium, and the cells were incubated for 24 hours. Subsequently, the cells were lysed by a method presented in the operation manual of the AMPKα immunoassay kit, and 20 μg of cell lysates were yielded through protein assay. A degree of phosphorylation of an AMPKα threonine 172nd residue (Thr172) from the cell lysates were confirmed according to a method presented in the operation manual of the AMPKα immunoassay kit to thereby obtain results.
In addition, an experiment was performed in the same manner as described in Experimental Example 2 using metformin as a control group, and the results of an effect on AMPK activation were compared to the effect on AMPK activation when 1 mM metformin was treated.

In the case of `CCCN(CCC)C(=N)NC(=N)N(CC)CC.Cl` [Example 37, N1,N1-dipropyl-N5,N5-diethyl Biguanide Hydrochloride], the melting point (in general, the temperature, or range, at which the solid turns liquid) was in the range of 151 to 152 °C. Also, the IC50 (in general, the point on the concentration scale where inhibition reaches its midpoint) with HCT116 cells was over 100 µM. Besides, in series [1], the “AMPK Activation (phosphorylated AMPKα Thr172)” value (“AMPK Activation” for short) worked out at 33.3 and the fold induction – broadly, the signal under treatment as a multiple of the control signal – at 50 µM turned out to be 6.3.

Molecule `CCCN(CCC)C(=N)NC(=N)N(C)CCc1ccccc1.Cl` [Example 38, N1,N1-dipropyl-N5,N5-(methyl)(phenethyl) Biguanide Hydrochloride] returned a melting point of 110 to 111 °C. Also, 36 µM corresponded to half-maximal inhibition in the series with HCT116 cells (IC50). Also, in series [1], the “AMPK Activation” value is recorded as 35.8 and the fold induction at 50 µM amounted to 6.8.

With `CCCN(CCC)C(=N)NC(=N)N(c1ccccc1)c1ccc(O)cc1.Cl` [Example 39, N1,N1-dipropyl-N5,N5-(4-hydroxylphenyl)(phenyl) Biguanide Hydrochloride], the melting point lay in the range of 189 to 190 °C. Besides, the concentration for half-maximal inhibition (IC50) in the series with HCT116 cells is over 100 µM. Also, in series [1], the “AMPK Activation” value was determined as 28.8 and the fold induction at 50 µM worked out at 4.2.

`CN(Cc1ccccc1)C(=N)NC(=N)N(C)Cc1ccccc1.Cl` [Example 40, N1,N1,N5,N5-bis((benzyl)(methyl)) Biguanide Hydrochloride] gave a melting point of 141 to 142 °C. In addition, the IC50 with HCT116 cells is over 100 µM. Also, in series [1], the “AMPK Activation” value came to 11.3 and the fold induction at 50 µM was determined as 1.7.
